The record followed here is PMC12304045 (2025).

Test [1] concerns OTC-APT5, amine-terminated (DNA, aptamer) ACGACATTCCGTTGATCTCTCCCTTTTGGGTTGGTGTCGT
Kind of test: DPV aptasensor, [Fe(CN)6]3-/4- probe. The settings on record: 2 mM MgCl2, 10 mM phosphate buffer pH 7.4.

For test [2], the system named is OTC-APT5 (DNA, aptamer) ACGACATTCCGTTGATCTCTCCCTTTTGGGTTGGTGTCGT
Kind of test: fluorescence polarization titration. To be noted: 100 mM NaCl, 5 mM KCl, 2 mM MgCl2, 2 mM CaCl2; 20 mM tris, 0.05% Tween 20; 200 nM OTC titrated with aptamer.

Test [3] shares this test system. The test can be described thus: circular dichroism. The settings on record: 100 mM NaCl, 5 mM KCl, 2 mM MgCl2, 2 mM CaCl2; 20 mM tris, 0.05% Tween 20, 25 °C; 2 μM aptamer.
Test [4] has the same test system. The test can be described thus: fluorescence titration. The settings on record: 100 mM NaCl, 5 mM KCl, 2 mM MgCl2, 2 mM CaCl2; 20 mM tris, 0.05% Tween 20; 200 nM OTC titrated with aptamer; unit likely misprint for nM.
Setting [5] is: highest tested 250 ng/mL, signal change <10% of OTC.

Structures are written as SMILES.

Regarding `CC1(C)S[C@@H]2[C@H](NC(=O)Cc3ccccc3)C(=O)N2[C@H]1C(=O)O`, in test [1] (setting [5]), the binding result is listed as “no”. Turning to `CC1(C)S[C@@H]2[C@H](NC(=O)[C@H](N)c3ccccc3)C(=O)N2[C@H]1C(=O)O`, the binding entry in test [1] (tested at fivefold excess over OTC, signal change <10% of OTC) is listed as “no”. Take `CN(C)[C@@H]1C(=O)C(C(N)=O)=C(O)[C@@]2(O)C(=O)C3=C(O)c4c(O)cccc4[C@@](C)(O)[C@H]3C[C@@H]12`: the binding entry in test [1] (50 ng/mL, signal similar to OTC) is listed as “yes”.

Take `CN(C)[C@@H]1C(=O)C(C(N)=O)=C(O)[C@@]2(O)C(=O)C3=C(O)c4c(O)cccc4[C@@](C)(O)[C@H]3[C@H](O)[C@@H]12`: the binding entry in test [1] (50 ng/mL OTC) and in test [3] was “yes” each time. In addition, the Kd in test [2] was 0.062 µM; in test [4] it was 106 nM.

Regarding `CN[C@@H]1[C@H](O[C@H]2[C@H](O[C@H]3[C@H](O)[C@@H](O)[C@H](N=C(N)N)[C@@H](O)[C@@H]3N=C(N)N)O[C@@H](C)[C@]2(O)C=O)O[C@@H](CO)[C@H](O)[C@H]1O`, in test [1] (setting [5]), the binding result is “no”. In the case of `NC[C@H]1O[C@H](O[C@H]2[C@H](O)[C@@H](O[C@H]3O[C@H](CO)[C@@H](O)[C@H](N)[C@H]3O)[C@H](N)C[C@@H]2N)[C@H](O)[C@@H](O)[C@@H]1O`, the binding entry in test [1] (setting [5]) is reported as “no”.
